Experimental data as given in PubChem BioAssay AID1963975 (Molecular Pharmacology Branch, DTP, NCI, 2024).
pIC50: −log10 of the molar value.

Tested on: 624824-186-R-J2-PDC multicell spheroids, viability
Assay: Anticancer human tumor 624824-186-R-J2-PDC patient-derived colon adenocarcinoma cell line growth inhibition [PI3K]
Conditions: for viability, T/C: stronger effect = lower value
Outline: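 Multi-cell spheroids combine tumor cells with HUVEC and human MSCs, treated with targeted agents alone or with inavolisib, alpelisib, duvelisib or copanlisib. Concentrations fall in half-log steps from at or near clinical Cmax, or from 10 microM where Cmax is unknown; viability read-out.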

[1] = curve of first compound, second compound 0.0316 µM
[2] = curve of first compound, second compound 0.1 µM
[3] = curve of first compound, second compound 0.316 µM
[4] = curve of first compound, second compound 1 µM
[5] = curve of first compound, second compound 3.16 µM
[6] = curve of first compound, second compound 10 µM
[7] = second compound 0.0316 µM, first compound 0.000316 µM
[8] = second compound 0.0316 µM, first compound 0.001 µM
[9] = second compound 0.0316 µM, first compound 0.00316 µM
[10] = second compound 0.0316 µM, first compound 0.01 µM
[11] = second compound 0.0316 µM, first compound 0.0316 µM
[12] = second compound 0.0316 µM, first compound 0.1 µM
[13] = second compound 0.1 µM, first compound 0.000316 µM
[14] = second compound 0.1 µM, first compound 0.001 µM
[15] = second compound 0.1 µM, first compound 0.00316 µM
[16] = second compound 0.1 µM, first compound 0.01 µM
[17] = second compound 0.1 µM, first compound 0.0316 µM
[18] = second compound 0.1 µM, first compound 0.1 µM
[19] = second compound 0.316 µM, first compound 0.000316 µM
[20] = second compound 0.316 µM, first compound 0.001 µM
[21] = second compound 0.316 µM, first compound 0.00316 µM
[22] = second compound 0.316 µM, first compound 0.01 µM
[23] = second compound 0.316 µM, first compound 0.0316 µM
[24] = second compound 0.316 µM, first compound 0.1 µM
[25] = second compound 1 µM, first compound 0.000316 µM
[26] = second compound 1 µM, first compound 0.001 µM
[27] = second compound 1 µM, first compound 0.00316 µM
[28] = second compound 1 µM, first compound 0.01 µM
[29] = second compound 1 µM, first compound 0.0316 µM
[30] = second compound 1 µM, first compound 0.1 µM
[31] = second compound 3.16 µM, first compound 0.0316 µM
[32] = second compound 3.16 µM, first compound 0.1 µM
[33] = second compound 10 µM, first compound 0.0316 µM
[34] = second compound 10 µM, first compound 0.1 µM
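Also: spheroids exposed to agents for 7 days before viability read.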
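For viability, T/C in this document: 100% = DMSO vehicle treated spheroids.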

CC(C)n1nc(-c2ccc3oc(N)nc3c2)c2c(N)ncnc21 + Cc1nc(NC(=O)N2CCCC2C(N)=O)sc1-c1ccnc(C(C)(C)C(F)(F)F)c1
pIC50 [1]: < 7.00
pIC50 [2]: < 7.00
pIC50 [3]: < 7.00
pIC50 [4]: < 7.00
pIC50 [5]: < 7.00
pIC50 [6]: 7.43
viability, T/C [7]: 68.1%
viability, T/C [8]: 74%
viability, T/C [9]: 59.7%
viability, T/C [10]: 67.7%
viability, T/C [11]: 58.7%
viability, T/C [12]: 67.8%
viability, T/C [13]: 79.1%
viability, T/C [14]: 64.5%
viability, T/C [15]: 65.4%
viability, T/C [16]: 62.5%
viability, T/C [17]: 74%
viability, T/C [18]: 75%
viability, T/C [19]: 86.9%
viability, T/C [20]: 69%
viability, T/C [21]: 81.6%
viability, T/C [22]: 64.7%
viability, T/C [23]: 60.9%
viability, T/C [24]: 67.7%
viability, T/C [25]: 79.4%
viability, T/C [26]: 61.1%
viability, T/C [27]: 61%
viability, T/C [28]: 70.5%
viability, T/C [29]: 67.1%
viability, T/C [30]: 63.6%
viability, T/C (second compound 3.16 µM, first compound 0.000316 µM): 72.2%
viability, T/C (second compound 3.16 µM, first compound 0.001 µM): 61.3%
viability, T/C (second compound 3.16 µM, first compound 0.00316 µM): 66.1%
viability, T/C (second compound 3.16 µM, first compound 0.01 µM): 65.9%
viability, T/C [31]: 69.7%
viability, T/C [32]: 53.7%
viability, T/C (second compound 10 µM, first compound 0.000316 µM): 68.2%
viability, T/C (second compound 10 µM, first compound 0.001 µM): 74%
viability, T/C (second compound 10 µM, first compound 0.00316 µM): 65.8%
viability, T/C (second compound 10 µM, first compound 0.01 µM): 61.5%
viability, T/C [33]: 51.8%
viability, T/C [34]: 41.1%

Cn1ncnc1[C@H]1c2n[nH]c(=O)c3cc(F)cc(c23)N[C@@H]1c1ccc(F)cc1 + CC(Nc1ccc2c(c1)OCCn1cc(N3C(=O)OCC3C(F)F)nc1-2)C(N)=O
pIC50 (curve of first compound, second compound 0.00316 µM): < 7.00
pIC50 (curve of first compound, second compound 0.01 µM): < 7.00
pIC50 [1]: < 7.00
pIC50 [2]: < 7.00
pIC50 [3]: < 7.00
pIC50 [4]: < 7.00
viability, T/C (second compound 0.00316 µM, first compound 0.000316 µM): 78.6%
viability, T/C (second compound 0.00316 µM, first compound 0.001 µM): 115%
viability, T/C (second compound 0.00316 µM, first compound 0.00316 µM): 96.8%
viability, T/C (second compound 0.00316 µM, first compound 0.01 µM): 95.4%
viability, T/C (second compound 0.00316 µM, first compound 0.0316 µM): 94.8%
viability, T/C (second compound 0.00316 µM, first compound 0.1 µM): 82.2%
viability, T/C (second compound 0.01 µM, first compound 0.000316 µM): 112%
viability, T/C (second compound 0.01 µM, first compound 0.001 µM): 82.4%
viability, T/C (second compound 0.01 µM, first compound 0.00316 µM): 92.9%
viability, T/C (second compound 0.01 µM, first compound 0.01 µM): 90.4%
viability, T/C (second compound 0.01 µM, first compound 0.0316 µM): 93.1%
viability, T/C (second compound 0.01 µM, first compound 0.1 µM): 91.5%
viability, T/C [7]: 96.7%
viability, T/C [8]: 97.1%
viability, T/C [9]: 101%
viability, T/C [10]: 81.3%
viability, T/C [11]: 90.5%
viability, T/C [12]: 89.5%
viability, T/C [13]: 108%
viability, T/C [14]: 89%
viability, T/C [15]: 81.2%
viability, T/C [16]: 89.8%
viability, T/C [17]: 74.4%
viability, T/C [18]: 84.9%
viability, T/C [19]: 90.7%
viability, T/C [20]: 78%
viability, T/C [21]: 81.9%
viability, T/C [22]: 98.3%
viability, T/C [23]: 74.8%
viability, T/C [24]: 86.1%
viability, T/C [25]: 91.6%
viability, T/C [26]: 85.3%
viability, T/C [27]: 90%
viability, T/C [28]: 86.2%
viability, T/C [29]: 110%
viability, T/C [30]: 77.9%

C=CC(=O)N1CCN(c2nc(=O)n(-c3c(C)ccnc3C(C)C)c3nc(-c4c(O)cccc4F)c(F)cc23)C(C)C1 (centres undefined) + CC(Nc1ncnc2nc[nH]c12)c1cc2cccc(Cl)c2c(=O)n1-c1ccccc1
pIC50 [1]: < 5.00
pIC50 [2]: < 5.00
pIC50 [3]: < 5.00
pIC50 [4]: < 5.00
pIC50 [5]: < 5.00
pIC50 [6]: < 5.00
viability, T/C [11]: 77.6%
viability, T/C [12]: 82.8%
viability, T/C (second compound 0.0316 µM, first compound 0.316 µM): 100%
viability, T/C (second compound 0.0316 µM, first compound 1 µM): 85.2%
viability, T/C (second compound 0.0316 µM, first compound 3.16 µM): 75.2%
viability, T/C (second compound 0.0316 µM, first compound 10 µM): 77.9%
viability, T/C [17]: 95.2%
viability, T/C [18]: 77.9%
viability, T/C (second compound 0.1 µM, first compound 0.316 µM): 82%
viability, T/C (second compound 0.1 µM, first compound 1 µM): 93.6%
viability, T/C (second compound 0.1 µM, first compound 3.16 µM): 78.1%
viability, T/C (second compound 0.1 µM, first compound 10 µM): 90.2%
viability, T/C [23]: 104%
viability, T/C [24]: 94.2%
viability, T/C (second compound 0.316 µM, first compound 0.316 µM): 79.4%
viability, T/C (second compound 0.316 µM, first compound 1 µM): 88.7%
viability, T/C (second compound 0.316 µM, first compound 3.16 µM): 83.8%
viability, T/C (second compound 0.316 µM, first compound 10 µM): 72.8%
viability, T/C [29]: 106%
viability, T/C [30]: 80.7%
viability, T/C (second compound 1 µM, first compound 0.316 µM): 84.8%
viability, T/C (second compound 1 µM, first compound 1 µM): 84.4%
viability, T/C (second compound 1 µM, first compound 3.16 µM): 77.3%
viability, T/C (second compound 1 µM, first compound 10 µM): 70.6%
viability, T/C [31]: 97.6%
viability, T/C [32]: 96.6%
viability, T/C (second compound 3.16 µM, first compound 0.316 µM): 77.5%
viability, T/C (second compound 3.16 µM, first compound 1 µM): 90.4%
viability, T/C (second compound 3.16 µM, first compound 3.16 µM): 85.5%
viability, T/C (second compound 3.16 µM, first compound 10 µM): 81%
viability, T/C [33]: 116%
viability, T/C [34]: 98.7%
viability, T/C (second compound 10 µM, first compound 0.316 µM): 109%
viability, T/C (second compound 10 µM, first compound 1 µM): 99.2%
viability, T/C (second compound 10 µM, first compound 3.16 µM): 92.3%
viability, T/C (second compound 10 µM, first compound 10 µM): 83%

CC(Nc1ncnc2nc[nH]c12)c1cc2cccc(Cl)c2c(=O)n1-c1ccccc1 (centres undefined)
viability, T/C (compound 0.316 µM): 91.6% [middle of 8 runs]
viability, T/C (compound 1 µM): 91.4% [middle of 8 runs]
pIC50 (compound alone, run of 06/13/2023): < 5.00
